This note sets out measurements from ChEMBL document CHEMBL3745715, “Sulfonamide inhibition studies of the α-carbonic anhydrase from the gammaproteobacterium Thiomicrospira crunogena XCL-2, TcruCA” (Bioorg Med Chem Lett, 2016).

The target of one assay is T1, Carbonate dehydratase (Sulfurihydrogenibium sp. (strain YO3AOP1), UniProt B2V8E3).
T1 sequence (B2V8E3 whole entry): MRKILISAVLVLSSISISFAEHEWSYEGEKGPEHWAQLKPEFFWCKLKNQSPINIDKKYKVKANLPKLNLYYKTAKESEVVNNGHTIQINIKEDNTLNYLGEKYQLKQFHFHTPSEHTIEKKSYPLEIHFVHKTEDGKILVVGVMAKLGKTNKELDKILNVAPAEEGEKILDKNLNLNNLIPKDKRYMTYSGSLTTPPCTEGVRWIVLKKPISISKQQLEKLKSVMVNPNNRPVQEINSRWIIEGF

Assay [1] deals with Carbonic anhydrase, alpha family (Thiomicrospira crunogena, UniProt Q31FD6).
Sequence of Carbonic anhydrase, alpha family (Q31FD6 whole entry): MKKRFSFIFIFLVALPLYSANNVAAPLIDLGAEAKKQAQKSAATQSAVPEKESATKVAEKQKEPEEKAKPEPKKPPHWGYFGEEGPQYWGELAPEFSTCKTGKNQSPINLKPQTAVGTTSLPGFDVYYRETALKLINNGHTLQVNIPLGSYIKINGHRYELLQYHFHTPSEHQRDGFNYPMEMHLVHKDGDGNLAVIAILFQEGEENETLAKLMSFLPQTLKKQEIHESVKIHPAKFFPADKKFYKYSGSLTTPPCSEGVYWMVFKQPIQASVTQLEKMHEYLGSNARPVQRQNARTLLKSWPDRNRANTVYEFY
Description: Inhibition of recombinant Thiomicrospira crunogena XCL-2 carbonic anhydrase by stopped flow CO2 hydrase assay

Description for Carbonate dehydratase: Inhibition of recombinant Sulfurihydrogenibium yellowstonense YO3AOP1 carbonic anhydrase by stopped flow CO2 hydrase assay

Consider `Nc1ccc(S(=O)(=O)NCc2ccc(S(N)(=O)=O)cc2)cc1`, for which the Ki (in general, the equilibrium dissociation constant of an inhibitor or competing ligand from its target) was found to be 7.8 nM on Carbonate dehydratase and 454 nM in assay [1].

Consider `Nc1nccc(Nc2ccc(S(N)(=O)=O)cc2)n1`, for which the Ki at Carbonate dehydratase is 6.5 nM; in assay [1] it was 92.3 nM.

For `NCc1ccc(S(N)(=O)=O)cc1` [MAFENIDE], the results for the Ki (on Carbonate dehydratase; in assay [1]) were 350 nM and 202 nM, respectively.

Regarding `NNc1ccccc1S(N)(=O)=O`, the inhibition constant (Ki) on Carbonate dehydratase was 695 nM; in assay [1], 71.4 nM.

For the compound `Nc1ccc(S(N)(=O)=O)cc1` [SULFANILAMIDE], the results for the Ki (on Carbonate dehydratase; in assay [1]) were 652 nM and 628 nM, respectively.

In the case of `Nc1ccc(S(N)(=O)=O)cc1Br`, the results for the Ki (on Carbonate dehydratase; in assay [1]) were 75.7 nM and 545 nM, respectively.

Turning to `CCN[C@H]1CN(CCCOC)S(=O)(=O)c2sc(S(N)(=O)=O)cc21` [BRINZOLAMIDE], the Ki was determined as 12.3 nM at Carbonate dehydratase and 4.2 nM in assay [1].

On to `Nc1ccc(S(=O)(=O)NCCc2ccc(S(N)(=O)=O)cc2)cc1`, for which the Ki at Carbonate dehydratase came to 9.7 nM; in assay [1] it was 402 nM.

With `Nc1ccc(S(N)(=O)=O)cc1Cl`, the figures for the Ki (on Carbonate dehydratase; in assay [1]) were 41.2 nM and 79.7 nM, respectively.

Take `NS(=O)(=O)c1nnc(NS(=O)(=O)c2ccccc2)s1` [BENZOLAMIDE]: the inhibition constant Ki in assay [1] amounted to 2.7 nM.

In the case of `NS(=O)(=O)c1nnc(-c2ccccc2Cl)s1`, the Ki at Carbonate dehydratase was 70.1 nM; in assay [1], 2.5 nM.

`Nc1cc(C(F)(F)F)c(S(N)(=O)=O)cc1S(N)(=O)=O` [2,4-DISULFAMYLTRIFLUOROMETHYLANILINE] registered a Ki in assay [1] of 67.2 nM.

The compound `Nc1ccc(S(N)(=O)=O)cc1I` returned a Ki on Carbonate dehydratase of 44.8 nM.

Take `Cc1ccc(-c2cc(C(F)(F)F)nn2-c2ccc(S(N)(=O)=O)cc2)cc1` [CELECOXIB]: the figures for the inhibitory constant (Ki) (at Carbonate dehydratase; in assay [1]) were 6.9 nM and 981 nM, respectively.

In the case of `NS(=O)(=O)c1ccc(C(=O)O)cc1` [CARZENIDE], the Ki at Carbonate dehydratase amounted to 72.4 nM; in assay [1], 85.2 nM.

Turning to `NS(=O)(=O)c1nc2ccc(O)cc2s1`, in assay [1], affinity was put at a Ki of 40.7 nM.

Turning to `Nc1ccc(S(=O)(=O)Nc2nnc(S(N)(=O)=O)s2)cc1`, the Ki at Carbonate dehydratase is 5.5 nM; in assay [1] it was 5.6 nM.

As to `NCCc1ccc(S(N)(=O)=O)cc1`, the affinity in assay [1] corresponds to a Ki of 488 nM.

Take `NNc1ccc(S(N)(=O)=O)cc1`: the Ki at Carbonate dehydratase was found to be 803 nM; in assay [1] it was 84.5 nM.

In the case of `NS(=O)(=O)c1ccc(CO)cc1`, the inhibition constant Ki at Carbonate dehydratase was 493 nM; in assay [1] it was 21.2 nM.

Regarding `NS(=O)(=O)c1ccc(CCO)cc1`, the results for the Ki (on Carbonate dehydratase; in assay [1]) were 162 nM and 31.5 nM, respectively.

`Cc1ccc(S(N)(=O)=O)cc1` [P-TOLUENESULFONAMIDE]: the inhibition constant Ki on Carbonate dehydratase is 848 nM; in assay [1], 244 nM.

Turning to `Cn1nc(S(N)(=O)=O)sc1=N`, the Ki on Carbonate dehydratase was 433 nM; in assay [1] it was 4.8 nM.

In assay [1], `CCOc1ccc2nc(S(N)(=O)=O)sc2c1` [ETHOXZOLAMIDE] gave a Ki of 4.1 nM.

In the case of `Nc1ccc(S(N)(=O)=O)cc1F`, the Ki at Carbonate dehydratase turned out to be 68.3 nM; in assay [1] it was 82.1 nM.

`CC1(C)O[C@@H]2[C@@H](CO[C@@]3(COS(N)(=O)=O)OC(C)(C)O[C@@H]23)O1` [TOPIRAMATE]: the inhibition constant (Ki) came to 6.6 nM on Carbonate dehydratase and 769 nM in assay [1].

Consider `Nc1nnc(S(N)(=O)=O)s1`, for which the results for the Ki (at Carbonate dehydratase; in assay [1]) were 137 nM and 27.9 nM, respectively.

In the case of `O=C1NS(=O)(=O)c2ccccc21` [SACCHARIN], the Ki turned out to be 876 nM on Carbonate dehydratase and 933 nM in assay [1].

`Nc1cc(Cl)c(S(N)(=O)=O)cc1S(N)(=O)=O` registered a Ki in assay [1] of 54.4 nM.
